According to PubChem BioAssay AID2060500 (Molecular Pharmacology Branch, DTP, NCI, 2025):

Test system: 596521-263-R-J1-PDC complex spheroids, viability % of control
Test: Anticancer human tumor 596521-263-R-J1-PDC patient-derived soft tissue sarcoma cell line growth inhibition [GQUAD]
Details: for IC50: curve of first compound; for viability, T/C: stronger effect = lower value; active = viability on the fitted dose curve at most 10% of control; inactive = the rest
Description: DNA G-quadruplex Stabilizer Agents in Combinations in Complex Spheroids
A high-throughput screen of multi-cell type tumor spheroids was designed to identify active combinations of DNA G-quadruplex stabilizer agents and targeted small molecules. Complex spheroids include a stromal component modeled by human endothelial cells (HUVEC) and fibroblasts modeled by human mesenchymal stem cells (MSCs). The concentration ranges selected for each drug and investigational agent were based upon clinically achievable concentrations if the clinical Cmax of the agent was known.
Compounds. The drugs and investigational agents: pidnarulex (CX-5461; NSC782164), APTO-253 (NSC789042), BRACO-19 (NSC847499), peposertib (NSC802822), ceralasertib (NSC780249), elimusertib (NSC800525), camonsertib (NSC841442), AZD-1390 (NSC803789), olaparib (NSC753686), talazoparib (NSC767125), ART-558 (NSC835418), sotorasib (NSC818433), MRTX-1133 (NSC836407), SN-38 (NSC673596), topotecan (NSC609699), etoposide (NSC141540), doxorubicin (NSC123127), gemcitabine (NSC613327), 5-fluorouracil (NSC19893), paclitaxel (NSC125973), vemurafenib (NSC761431), panobinostat (NSC761190), R-306465 (JNJ-16241199; NSC773264), adavosertib (NSC754352), TP-3654 (NSC805149), carboplatin (NSC241240), KSQ-4279 (NSC840948), and staurosporine (NSC755774) were obtained from the National Cancer Institute (NCI) Developmental Therapeutics Program Chemical Repository (34). The FDA-approved anticancer drug set is available from the NCI Developmental Therapeutics Program. […] The stock solutions were prepared in dimethyl sulfoxide (DMSO, Sigma-Aldrich, St. Louis, MO, cat. D2650) at 800-fold the tested concentration and stored at -70 degrees C prior to their use. All drugs and investigational agents were tested over a range starting from a high concentration at or near the clinical Cmax and decreasing in half-log increments. If the clinical Cmax for an agent had not been determined, the highest concentration tested was 10 microM.
2.3 Cell Culture. All cells were maintained in an incubator at 37 degrees C and 5% CO2 with 95% humidity. The PDC lines were cultured according to standard operating procedures established by the NCI PDMR. All PDCs were thawed and cultured in Matrigel-coated flasks prepared with a working solution of 1X Ham's F-12 nutrient mix, without supplementation (Invitrogen, cat. 11765054), 100 U/mL penicillin-streptomycin (Invitrogen, cat. 15140122), and 2.5% Matrigel (Corning Inc., cat. 354248) for the first three passages. The 857933-349-R-J2-PDC line was cultured in 6C/Colon 1B media, which includes advanced DMEM/F-12 (Thermo Fisher Scientific, cat. 12634028), 10 mM HEPES (Thermo Fisher Scientific, cat. 15630080), 1X GlutaMAX supplement (Thermo Fisher Scientific, cat. 35050061), 0.1 mg/mL primocin (InvivoGen, cat. ant-pm-2), 10% defined fetal bovine serum, heat inactivated (HyClone Laboratories Inc., cat. SH30070.03HI), 50% L-WRN conditioned media (ATCC, cat. CRL-3276), 1.25 mM N-Acetyl-L-cysteine (Sigma-Aldrich, cat. A9165), 10 mM nicotinamide (Sigma-Aldrich, cat. N0636), 1X B-27 supplement (Thermo Fisher Scientific, cat. 17504044), 1X N-2 supplement (Thermo Fisher Scientific, cat. 17502048), 10 microM Y-27632 dihydrochloride (Tocris Bioscience, cat. 1254), and 50 ng/mL human EGF recombinant protein (Thermo Fisher Scientific, cat. PHG0311). The 485176-168-R4-J1-PDC line was cultured in Panc media, which includes all 6C/Colon 1B media components plus 100 ng/mL human FGF-10 (Thermo Fisher Scientific, cat. 100-26), 500 nM SB-431542 (Selleckchem, cat. S1067), and gastrin (Tocris, cat. 3006).
[…]

[1] = second compound 0.0316 µM, first compound 0.0316 µM
[2] = second compound 0.0316 µM, first compound 0.1 µM
[3] = second compound 0.0316 µM, first compound 0.316 µM
[4] = second compound 0.0316 µM, first compound 1 µM
[5] = second compound 0.0316 µM, first compound 3.16 µM
[6] = second compound 0.0316 µM, first compound 10 µM
[7] = second compound 0.1 µM, first compound 0.0316 µM
[8] = second compound 0.1 µM, first compound 0.1 µM
[9] = second compound 0.1 µM, first compound 0.316 µM
[10] = second compound 0.1 µM, first compound 1 µM
[11] = second compound 0.1 µM, first compound 3.16 µM
[12] = second compound 0.1 µM, first compound 10 µM
[13] = second compound 0.316 µM, first compound 0.0316 µM
[14] = second compound 0.316 µM, first compound 0.1 µM
[15] = second compound 0.316 µM, first compound 0.316 µM
[16] = second compound 0.316 µM, first compound 1 µM
[17] = second compound 0.316 µM, first compound 3.16 µM
[18] = second compound 0.316 µM, first compound 10 µM
[19] = second compound 1 µM, first compound 0.0316 µM
[20] = second compound 1 µM, first compound 0.1 µM
[21] = second compound 1 µM, first compound 0.316 µM
[22] = second compound 1 µM, first compound 1 µM
[23] = second compound 1 µM, first compound 3.16 µM
[24] = second compound 1 µM, first compound 10 µM
[25] = second compound 3.16 µM, first compound 0.0316 µM
[26] = second compound 3.16 µM, first compound 0.1 µM
[27] = second compound 3.16 µM, first compound 0.316 µM
[28] = second compound 3.16 µM, first compound 1 µM
[29] = second compound 3.16 µM, first compound 3.16 µM
[30] = second compound 3.16 µM, first compound 10 µM
[31] = second compound 10 µM, first compound 0.0316 µM
[32] = second compound 10 µM, first compound 0.1 µM
[33] = second compound 10 µM, first compound 0.316 µM
[34] = second compound 10 µM, first compound 1 µM
[35] = second compound 10 µM, first compound 3.16 µM
[36] = second compound 10 µM, first compound 10 µM
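Also: spheroids exposed to drugs for 7 days before viability reading.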

CC(C)n1c(=O)n(C)c2cnc3cc(F)c(-c4ccc(OCCCN5CCCCC5)nc4)cc3c21 + CN(C)c1ccc(Nc2c3ccc(NC(=O)CCN4CCCC4)cc3nc3cc(NC(=O)CCN4CCCC4)ccc23)cc1
899 nM: IC50 (second compound 10 µM)
> 10000 nM: IC50 (second compound 0.0316 µM) | IC50 (second compound 0.1 µM) | IC50 (second compound 0.316 µM) | IC50 (second compound 1 µM) | IC50 (second compound 3.16 µM)
inactive: viability, T/C [1] 104% | viability, T/C [2] 103% | viability, T/C [3] 100% | viability, T/C [4] 87.1% | viability, T/C [5] 84.1% | viability, T/C [6] 66.8% | viability, T/C [7] 104% | viability, T/C [8] 106% | viability, T/C [9] 91.8% | viability, T/C [10] 95.7% | viability, T/C [11] 92.4% | viability, T/C [12] 63.5% | viability, T/C [13] 111% | viability, T/C [14] 96.8% | viability, T/C [15] 103% | viability, T/C [16] 89.8% | viability, T/C [17] 84.7% | viability, T/C [18] 64.9% | viability, T/C [19] 99.8% | viability, T/C [20] 112% | viability, T/C [21] 100% | viability, T/C [22] 98.5% | viability, T/C [23] 96.9% | viability, T/C [24] 73.6% | viability, T/C [25] 90.7% | viability, T/C [26] 98% | viability, T/C [27] 91.2% | viability, T/C [28] 80.7% | viability, T/C [29] 77% | viability, T/C [30] 59.6% | viability, T/C [31] 70% | viability, T/C [32] 60.7% | viability, T/C [33] 57.4% | viability, T/C [34] 48.4% | viability, T/C [35] 43.6% | viability, T/C [36] 31.5%

CC1COCCN1c1cc(-c2ccnn2C)c2ccnc(-c3ccn[nH]3)c2n1 (centres undefined) + CN(C)c1ccc(Nc2c3ccc(NC(=O)CCN4CCCC4)cc3nc3cc(NC(=O)CCN4CCCC4)ccc23)cc1
161 nM: IC50 (second compound 10 µM)
366 nM: IC50 (second compound 0.316 µM)
inactive: viability, T/C [1] 69.3% | viability, T/C [2] 53.7% | viability, T/C [3] 44.4% | viability, T/C [4] 41.3% | viability, T/C [5] 29.4% | viability, T/C [6] 22.8% | viability, T/C [7] 81% | viability, T/C [8] 59.2% | viability, T/C [9] 49.5% | viability, T/C [10] 39.2% | viability, T/C [11] 30.9% | viability, T/C [12] 21.3% | viability, T/C [13] 65.6% | viability, T/C [14] 63.4% | viability, T/C [15] 49.9% | viability, T/C [16] 39.3% | viability, T/C [17] 30.4% | viability, T/C [18] 21.9% | viability, T/C [19] 66.2% | viability, T/C [20] 63.6% | viability, T/C [21] 50.2% | viability, T/C [22] 45.4% | viability, T/C [23] 30.6% | viability, T/C [24] 25% | viability, T/C [25] 69.4% | viability, T/C [26] 59.4% | viability, T/C [27] 49.8% | viability, T/C [28] 43.6% | viability, T/C [29] 31.1% | viability, T/C [30] 22.9% | viability, T/C [31] 55.6% | viability, T/C [32] 54.8% | viability, T/C [33] 44.4% | viability, T/C [34] 35.5% | viability, T/C [35] 26.6% | viability, T/C [36] 21.9%
348 nM: IC50 (second compound 3.16 µM)
301 nM: IC50 (second compound 0.1 µM)
206 nM: IC50 (second compound 0.0316 µM)
449 nM: IC50 (second compound 1 µM)
